PubChem BioAssay (NCI)
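Assay format: 96-well plates, 48-hour exposure. GI50: concentration for 50% inhibition of growth. TGI is the concentration that stops growth completely.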

Columns and labels:
Assay in all cases: growth of human tumour cells (NCI), 48 h
ACHN renal = system: ACHN renal
MOLT-4 leukemia = system: MOLT-4 leukemia
DMS 114 small cell lung = system: DMS 114 small cell lung
HCT-116 colon = system: HCT-116 colon
UACC-62 melanoma = system: UACC-62 melanoma
SK-MEL-5 melanoma = system: SK-MEL-5 melanoma
OVCAR-8 ovarian = system: OVCAR-8 ovarian
XF 498 CNS = system: XF 498 CNS
BT-549 breast = system: BT-549 breast
HS 578T breast = system: HS 578T breast

Compound	TGI (ACHN renal) [µM]	TGI (MOLT-4 leukemia) [µM]	TGI (DMS 114 small cell lung) [µM]	TGI (HCT-116 colon) [µM]	TGI (UACC-62 melanoma) [µM]	TGI (SK-MEL-5 melanoma) [µM]	TGI (OVCAR-8 ovarian) [µM]	TGI (XF 498 CNS) [µM]	GI50 (ACHN renal) [µM]	GI50 (MOLT-4 leukemia) [µM]	GI50 (BT-549 breast) [µM]	TGI (BT-549 breast) [µM]	GI50 (HCT-116 colon) [µM]	GI50 (UACC-62 melanoma) [µM]	GI50 (SK-MEL-5 melanoma) [µM]	GI50 (OVCAR-8 ovarian) [µM]	GI50 (HS 578T breast) [µM]	TGI (HS 578T breast) [µM]
O=C1NC2OCC(O)C(O)C2O1 (stereo unspecified)	> 100	> 100	> 100	> 100	> 100	> 100	> 100											
COc1ccc(CNc2nc3cc(C(F)(F)F)ccc3nc2C)cc1OC		45.7		> 100	> 100	31.3	> 100	> 100										
COc1cc2c3c(n(CCCCOC(=O)C(Cl)(Cl)Cl)c(=O)c2cc1OC)-c1cc2c(cc1C3=O)OCO2	59.5	> 100		34.2	> 100	> 100	> 100		14.2	5.67	57.1	> 100	17	22.5	> 100	27.9	94.7	> 100
COC1=CC2(C=CC1=O)c1cc(OC)c(OC)cc1CCN2C(=O)c1ccccc1 (stereo unspecified)	> 100	> 100	> 100	> 100	> 100	> 100	> 100											
Cc1nc(-c2ccccc2)c(-c2ccccc2)s1	97.9	38.8		68.8	56.8	27.5	> 100					67.1						47.2
N#CCC(=O)NC1C2CC3CC(C2)CC1C3 (stereo unspecified)	33.3	> 100	30.5	29.2	28.7	27.9	33.1											
C=C(C)C1CCC2(C(=O)O)CCC3(C)C(CCC4C5(C)CCC(OC(=O)NCc6ccccc6)C(C)(C)C5CCC43C)C12 (stereo unspecified)	> 100	> 100		19.3	> 100	> 100	> 100		3.29	2.79	4.05	33.3	2.24	1.9	4.82	7.29	3.62	> 100
CCOC(=O)c1c(C)nc2c(c1N)/C(=C/c1ccc(OC)cc1)C(=O)N2Cc1ccc(F)cc1	0.529	0.745		0.36	0.317	1.48	1.06		0.137	0.221	0.169	0.365	0.134	0.16	0.333	0.257	0.479	> 100
O=C(/C=C\n1cnc(-c2cc(C(F)(F)F)cc(C(F)(F)F)c2)n1)NNc1cnccn1	13	> 100		12.4	6.83	2.22	36.5		0.113	0.0312	0.0385	2.82	0.0821	0.232	0.151	0.0769	0.231	25.7
COc1cc2c(c(OC)c1)C1(CC(CC#N)C2)SCCS1 (stereo unspecified)	> 100	> 100	> 100	> 100	> 100	> 100	> 100											
